Reference: patent publication US12247032B2, “Substituted pyrazolo[1,5-a]pyrimidines as inhibitors of JAK kinases” (Genentech, Inc., priority 2019, dated 2025)
Like-named read-outs stand apart in the source and are kept apart here.

Key:
[1] = target: T1, recombinant human JAK1 kinase domain protein (Residues 854-1154) (Homo sapiens, UniProt P23458); experiment: JAK1 biochemical assay (microfluidic mobility shift, peptide phosphorylation); settings: 25 μM ATP, 1 nM total JAK1; Ki calculated from Ki app (tight-binding, competitive); read-out: Biochem JAK1 Ki
T1 construct: human JAK1 kinase domain protein (Residues 854-1154); purchased Proteros Biostructures GmbH (Martinsried, Germany); host or cells: insect cells
Method: (§1) The in vitro biochemical assays quantify JAK-catalyzed phosphorylation of a synthetic peptide, as detected using a LabChip® EZ Reader II microfluidic mobility shift instrument (PerkinElmer; Waltham, MA). The substrate peptide Y-1B has the sequence 5-FAM-VALVDGYFRLTT-NH2. Y-1B is fluorescently labeled on the N-terminus with 5-FAM (5-carboxyfluorescein) and contains a single tyrosine residue (Y) that can be phosphorylated by JAK activity. The substrate peptide stock is prepared in DMSO at 5 mM. Purified recombinant human JAK1 kinase domain protein (Residues 854-1154) was expressed in insect cells and procured from Proteros Biostructures GmbH (Martinsried, Germany). Recombinant human JAK2 kinase domain protein (Residues 812-1132) was expressed in insect cells and purified at Genentech, Inc. (South San Francisco, CA).
(§2) The kinase reaction mixtures contained 100 mM 4-(2-hydroxyethyl)-1-piperazineethanesulfonic acid (HEPES) buffer (pH 7.2), 10 mM magnesium chloride, 0.015% Brij® 35, 4 mM dithiothreitol, 1.5 μM Y-1B peptide substrate, 25 μM adenosine triphosphate (ATP), 1 nM total JAK1 or 0.2 nM total JAK2, and up to 1000 nM test compound in a final concentration of 2% (volume to volume [v/v]) DMSO. In each titration experiment, test compound was tested in duplicate at each of the twelve concentrations. Blank reactions contained ATP, peptide, and DMSO, but no JAK or test compound, whereas uninhibited control reactions contained ATP, peptide, JAK, and DMSO, but no test compound.
(§3) Peptide plus ATP mixture (24 μL) was added to 1 μL of test compound in DMSO (or DMSO alone). The reactions were initiated by adding 25 μL of JAK enzyme to the inhibitor/peptide/ATP mixture before thoroughly mixing the resultant solution. Reactions were incubated at room temperature (22° C.-23° C.) in a final volume of 50 μL per well in 384-well plates. After a 30-minute incubation, the reactions were stopped by adding 25 μL of 150 mM ethylenediaminetetraacetic acid in 100 mM HEPES buffer (pH 7.2) containing 0.015% Brij 35 to each well.
(§4) In each reaction, the residual Y-1B substrate and the phospho-peptide product generated were separated using the EZ Reader 1 instrument. Electrophoretic separation of molecules of product from molecules of substrate was achieved using downstream and upstream voltages of −500 and −2600 V, respectively, at an operating pressure of −1.3 psi. The 5-FAM group present on both the substrate and product peptides was excited at 488 nm, the fluorescence was detected at 530 nm, and the peak heights were reported.
(§5) The extent (or percent) of conversion of substrate to product was calculated from the corresponding peak heights in the electropherogram using HTS Well Analyzer software, Version 5.2 (PerkinElmer), and the following equation (Equation 1): % conversion=[P[…](S+P)]×100 Equation 1 where S and P represent the peak heights of the substrate and product, respectively. After any baseline signal from blank wells containing no JAK was subtracted from the signal of all test wells, the % conversion data were converted to fractional activity as shown in Equation 2, where νi and νo are the % conversion in the presence and absence of test compound, respectively. The % conversion observed in the uninhibited control reactions containing JAK and DMSO vehicle, but no test compound, was defined to have fractional activity=1 (with no inhibitor present, νi=νo), whereas blank wells with no JAK were defined as having fractional activity=0. Fractional activity was plotted against test compound concentration and the data were fitted using XLfit software (IDBS; Guildford, United Kingdom) to a tight-binding apparent inhibition constant (Ki^app) quadratic equation (see Equation 2) (Williams J W, Morrison J F. The kinetics of reversible tight-binding inhibition. Methods Enymol 1979; 63:437-67), which was used to calculate fractional activity and Ki^app […]

[2] = target: T2, Recombinant human JAK2 kinase domain protein (Residues 812-1132) (Homo sapiens, UniProt O60674); experiment: JAK2 biochemical assay (microfluidic mobility shift, peptide phosphorylation); settings: 25 μM ATP, 0.2 nM total JAK2; Ki calculated from Ki app (tight-binding, competitive); read-out: Biochem JAK2 Ki
T2 construct: human JAK2 kinase domain protein (Residues 812-1132); made in house; host or cells: insect cells
Method: as §1, §2, §3, §4, §5

[3] = test system: JAK1 (IL-13-stimulated STAT6 phosphorylation in BEAS-2B cells); experiment: P-STAT6 BEAS-2B+IL-13 cell assay; format: cell-based, human; settings: 1 hour compound, IL-13 15 minutes, IC50 by four-parameter fit, read-out: Cellular JAK1 PSTAT6 BEAS2B + IL13
Method: In order to study the effect of JAK1 inhibitors in a cell line that is relevant to the cell biology of human asthma, an IL-13-stimulated STAT6 phosphorylation assay in the human lung bronchial epithelial BEAS-2B cell line was developed.
BEAS-2B cells (ATCC® CRL-9609™) were grown in Bronchial Epithelial Growth Medium (BEGM) (Lonza Catalog No. CC-3170; Walkersville, MD; or PromoCell Catalog No. C-21060; Heidelberg, Germany). Test compound stock solutions (0.5 mM in DMSO) were serially diluted 1:2 in DMSO to generate a 10-point concentration curve (at 500× test concentration), which was further diluted by a 50-fold dilution step in BEGM to generate a 10× concentration curve (in 2% DMSO). Cells were plated at 100,000 cells/well in 200 μL of BEGM in 96-well plates and incubated for 48 hours at 37° C. in a humidified incubator. Medium was aspirated from the cells and replaced with 70 μL of fresh BEGM. Diluted test compound (10 μL; or 2% DMSO in assay medium) was added to the cells, and the plates were incubated for 1 hour at 37° C. in a humidified incubator. Twenty μL of 250 ng/mL human recombinant IL-13 (Bio Techne Catalog No. 213-ILB) was then added to the cells and incubated for 15 minutes at 37° C. Medium was aspirated from the cells and 60 μL of ice-cold 1×cell lysis buffer (Cell Signaling Technologies; Catalog No. 9803S) containing 1 mM PMSF was added to the cells. Assay plates were incubated at −80° C. for at least 1 hour. P-STAT6 was measured by coating GAR plates (MSD; Catalog No. L45RA-1) with rabbit anti-human total STAT6 antibody (Cell Signaling Technologies; Catalog No. 9362S), incubating the cell lysates in the coated plates overnight at 4° C., and then detecting with mouse anti-phospho-STAT6 (Tyr641) Clone 16E12 antibody (Millipore; Catalog No. 05-590, custom labeled by MSD with SULFO-tag) using standard MSD plate processing, washing, and detection protocols. Plates were read on the MESO SECTOR S600.
Data analysis was performed by subtracting negative control values from all wells and determining percent of control using the positive control values; the IC50 was determined with a four-parameter logistic fit model as shown in Equation 4.

T1 sequence (P23458 854-1154): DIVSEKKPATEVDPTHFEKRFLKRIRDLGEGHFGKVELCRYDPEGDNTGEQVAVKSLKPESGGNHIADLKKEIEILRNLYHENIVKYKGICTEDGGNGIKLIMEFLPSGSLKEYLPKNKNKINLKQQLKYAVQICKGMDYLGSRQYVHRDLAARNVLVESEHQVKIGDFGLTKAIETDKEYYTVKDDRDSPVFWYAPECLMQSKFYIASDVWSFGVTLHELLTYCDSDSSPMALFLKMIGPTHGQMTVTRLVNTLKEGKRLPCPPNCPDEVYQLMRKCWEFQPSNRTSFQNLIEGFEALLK
T2 sequence (O60674 812-1132): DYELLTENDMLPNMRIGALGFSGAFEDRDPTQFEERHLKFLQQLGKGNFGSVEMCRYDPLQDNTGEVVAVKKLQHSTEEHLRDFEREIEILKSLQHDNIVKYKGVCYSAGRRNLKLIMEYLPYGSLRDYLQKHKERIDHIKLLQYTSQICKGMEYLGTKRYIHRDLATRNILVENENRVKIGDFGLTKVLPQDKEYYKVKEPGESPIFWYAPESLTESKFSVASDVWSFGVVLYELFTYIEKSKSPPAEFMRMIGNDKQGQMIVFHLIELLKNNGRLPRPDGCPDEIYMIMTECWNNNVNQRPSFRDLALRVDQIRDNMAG

| Compound | Ki [1] [nM] | Ki [2] [nM] | IC50 ([3]; Homo sapiens, BEAS-2B, 1 h) [nM] | IC50 [3] [nM] |
| --- | --- | --- | --- | --- |
| CN1CCC[C@H]1CN1CC(n2nnc(Cn3cc(NC(=O)c4cnn5cccnc45)c(-c4cc(OC(F)F)ccc4OC(F)F)n3)n2)C1 (racemic) [Example 46, N-[3-[2,5-bis(difluoromethoxy)phenyl]-1-[[2-[1-[[rac-(2S)-1-methylpyrrolidin-2-yl]methyl]azetidin-3-yl]tetrazol-5-yl]methyl]pyrazol-4-yl]pyrazolo[1,5-a]pyrimidine-3-carboxamide; formic acid] | 0.49 | 0.4 | 18 | – |
| CN1CCC[C@H]1CN1CC(n2nnc(Cn3cc(NC(=O)c4cnn5cccnc45)c(-c4cc(OC(F)F)ccc4OC(F)F)n3)n2)C1 (racemic) [Example 52, N-[3-[2,5-bis(difluoromethoxy)phenyl]-1-[[2-[1-[[rac-(2R)-1-methylpyrrolidin-2-yl]methyl]azetidin-3-yl]tetrazol-5-yl]methyl]pyrazol-4-yl]pyrazolo[1,5-a]pyrimidine-3-carboxamide] | 0.38 | 0.39 | – | 19 |
| CN1CCC[C@H]1Cn1nnnc1Cn1cc(NC(=O)c2cnn3cccnc23)c(-c2cc(OC(F)F)ccc2OC(F)F)n1 (racemic) [Example 54, N-[3-[2,5-bis(difluoromethoxy)phenyl]-1-[[1-[[rac-(2S)-1-methylpyrrolidin-2-yl]methyl]tetrazol-5-yl]methyl]pyrazol-4-yl]pyrazolo[1,5-a]pyrimidine-3-carboxamide] | 0.75 | 0.45 | 51 | – |
| CN1CCC(n2nnc(Cn3cc(NC(=O)c4cnn5cccnc45)c(-c4cc(OC(F)F)ccc4OC(F)F)n3)n2)C1 (single isomer, unassigned) [Example 29, N-[3-[2,5-bis(difluoromethoxy)phenyl]-1-[[2-(1-methylpyrrolidin-3-yl)tetrazol-5-yl]methyl]pyrazol-4-yl]pyrazolo[1,5-a]pyrimidine-3-carboxamide] | 0.43 | 0.25 | 15 | – |
| CN1CCC(n2nnc(Cn3cc(NC(=O)c4cnn5cccnc45)c(-c4cc(OC(F)F)ccc4OC(F)F)n3)n2)C1 (single isomer, unassigned) [Example 30, N-[3-[2,5-bis(difluoromethoxy)phenyl]-1-[[2-(1-methylpyrrolidin-3-yl)tetrazol-5-yl]methyl]pyrazol-4-yl]pyrazolo[1,5-a]pyrimidine-3-carboxamide] | 0.4 | 0.31 | – | 17 |
| CN(C)CCN1CCC(n2nnc(Cn3cc(NC(=O)c4cnn5cccnc45)c(-c4cc(OC(F)F)ccc4OC(F)F)n3)n2)C1 (single isomer, unassigned) [Example 67, N-[3-[2,5-bis(difluoromethoxy)phenyl]-1-[[2-[1-[2-(dimethylamino)ethyl]pyrrolidin-3-yl]tetrazol-5-yl]methyl]pyrazol-4-yl]pyrazolo[1,5-a]pyrimidine-3-carboxamide] | 0.53 | 0.42 | 56 | – |

Continued, in another order:

| Ki [1] [nM] | Ki [2] [nM] | Compound | IC50 ([3]; Homo sapiens, BEAS-2B, 1 h) [nM] | IC50 [3] [nM] |
| --- | --- | --- | --- | --- |
| 0.46 | 0.43 | CN(C)CCN1CCC(n2nnc(Cn3cc(NC(=O)c4cnn5cccnc45)c(-c4cc(OC(F)F)ccc4OC(F)F)n3)n2)C1 (single isomer, unassigned) [Example 68, N-[3-[2,5-bis(difluoromethoxy)phenyl]-1-[[2-[1-[2-(dimethylamino)ethyl]pyrrolidin-3-yl]tetrazol-5-yl]methyl]pyrazol-4-yl]pyrazolo[1,5-a]pyrimidine-3-carboxamide] | – | 41 |
| 0.64 | 0.55 | CN1CCC(N2CC(n3nnc(Cn4cc(NC(=O)c5cnn6cccnc56)c(-c5cc(OC(F)F)ccc5OC(F)F)n4)n3)C2)C1 (single isomer, unassigned) [Example 73, N-[3-[2,5-bis(difluoromethoxy)phenyl]-1-[[2-[1-(1-methylpyrrolidin-3-yl)azetidin-3-yl]tetrazol-5-yl]methyl]pyrazol-4-yl]pyrazolo[1,5-a]pyrimidine-3-carboxamide] | – | 43 |
| 0.55 | 0.47 | CN(C)C1CCC(N2CC(n3nnc(Cn4cc(NC(=O)c5cnn6cccnc56)c(-c5cc(OC(F)F)ccc5OC(F)F)n4)n3)C2)C1 (single isomer, unassigned) [Example 74, N-[3-[2,5-bis(difluoromethoxy)phenyl]-1-[[2-[1-[3-(dimethylamino)cyclopentyl]azetidin-3-yl]tetrazol-5-yl]methyl]pyrazol-4-yl]pyrazolo[1,5-a]pyrimidine-3-carboxamide] | – | 93 |
| 1.1 | 1.1 | CN(C)C1CCC(N2CC(n3nnc(Cn4cc(NC(=O)c5cnn6cccnc56)c(-c5cc(OC(F)F)ccc5OC(F)F)n4)n3)C2)C1 (single isomer, unassigned) [Example 75, N-[3-[2,5-bis(difluoromethoxy)phenyl]-1-[[2-[1-[3-(dimethylamino)cyclopentyl]azetidin-3-yl]tetrazol-5-yl]methyl]pyrazol-4-yl]pyrazolo[1,5-a]pyrimidine-3-carboxamide] | – | 200 |
